IC50 data for 21 compounds are collected here from US20230373985A1 (Origenis Gmbh, priority 2020, published 2023).

For orientation: IC50 means the concentration that inhibits the measured activity by half.

The target in test [1] is T1, wt human TYK2, catalytic site (Homo sapiens, UniProt P29597).
T1 construct: wt human TYK2, catalytic site; purchased SignalChem
T1 sequence (P29597 897-1176 limits assumed): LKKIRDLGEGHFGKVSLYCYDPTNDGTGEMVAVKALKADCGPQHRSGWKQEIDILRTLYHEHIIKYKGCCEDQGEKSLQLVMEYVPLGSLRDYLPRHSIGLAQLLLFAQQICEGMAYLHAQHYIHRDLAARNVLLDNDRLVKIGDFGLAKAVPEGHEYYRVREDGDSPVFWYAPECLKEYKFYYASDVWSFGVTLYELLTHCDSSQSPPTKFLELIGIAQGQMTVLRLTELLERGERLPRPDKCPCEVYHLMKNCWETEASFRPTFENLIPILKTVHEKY
The test can be described thus: HTRF KinEASE assay, TYK2. The following applies: 1 μM ATP; read-out: IC50, Activity Toward TYK2. Format: biochemical. The method in brief: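 Kinase reaction run at room temperature for at least 30 min: 2 nM TYK2 with 1 μM ATP, or 1 nM JAK2 with 100 μM ATP, each with 1 μM biotin-TK substrate. Phosphorylation detected by HTRF (60 min antibody/XL665) and evaluated from emission ratios.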
In general terms: In TR-FRET formats the signal depends on donor and acceptor labels being close together.

Test [2] concerns the target T2, wt human JAK1, catalytic site (Homo sapiens, UniProt P23458).
T2 construct: wt human JAK1, catalytic site; purchased ThermoFisher
Put plainly: HTRF KinEASE assay, JAK1. The test is classed as biochemical. The settings on record: 2.5 μM ATP; read-out: IC50, Activity Toward JAK1. The method in brief: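 Compounds in DMSO dilution were mixed with kinase, biotin-TK substrate and ATP and reacted for ≥30 min at room temperature. Detection reagents (antibody, streptavidin-XL665) were read 60 min later as HTRF, with emission ratios analysed per KinEASE protocol.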

T2 sequence (P23458 875-1153 limits assumed): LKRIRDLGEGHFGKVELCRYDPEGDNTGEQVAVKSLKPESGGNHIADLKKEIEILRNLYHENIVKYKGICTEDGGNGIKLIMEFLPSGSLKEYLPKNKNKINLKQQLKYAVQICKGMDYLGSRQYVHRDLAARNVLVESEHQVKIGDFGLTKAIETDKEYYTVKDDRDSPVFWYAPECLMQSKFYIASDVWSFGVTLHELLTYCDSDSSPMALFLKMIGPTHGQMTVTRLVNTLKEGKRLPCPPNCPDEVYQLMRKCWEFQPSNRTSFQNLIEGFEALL

Turning to `NC(=O)c1nn(-c2c(Cl)cccc2Cl)nc1Nc1ccc(C(=O)N2CCC(F)C2)cn1` (stereo in doubt) [compound 130, (S)-2-(2,6-dichlorophenyl)-5-((5-(3-fluoropyrrolidine-1-carbonyl)pyridin-2-yl)amino)-2H-1,2,3-triazole-4-carboxamide], the values for the IC50 in test [1] and in test [2] were 0.01 to 0.1 µM and 0.1 to 1 µM, respectively.
The matching figures for `NC(=O)c1nn(-c2c(Cl)cccc2Cl)nc1Nc1ccc(-n2ncc3c2CCOC3)cc1` [compound 110, 2-(2,6-Dichloro-phenyl)-5-[4-(6,7-dihydro-4H-pyrano[4,3-c]pyrazol-1-yl)-phenylamino]-2H-[1,2,3]triazole-4-carboxylic acid amide]: 0.01 to 0.1 µM and 0.01 to 0.1 µM.
For `CN1CCN(C(=O)c2ccc(Nc3nn(-c4c(Cl)cccc4Cl)nc3C(N)=O)nc2)CC1` [compound 127, 2-(2,6-dichlorophenyl)-5-((5-(4-methylpiperazine-1-carbonyl)pyridin-2-yl)amino)-2H-1,2,3-triazole-4-carboxamide], the IC50 in test [1] and in test [2] was 0.1 to 1 µM each time.
For the compound `CS(=O)(=O)Nc1ccc(Nc2cn(-c3c(Cl)cccc3Cl)nc2C(N)=O)cc1` [compound 271, 1-(2,6-dichlorophenyl)-4-((4-(methylsulfonamido)phenyl)amino)-1H-pyrazole-3-carboxamide], the IC50 in test [1] and in test [2] was 0.01 to 0.1 µM each time.
Turning to `CC(C)(C)C(=O)c1ccc(Nc2cn(-c3c(Cl)cccc3Cl)nc2C(N)=O)cc1` [compound 41, 1-(2,6-dichlorophenyl)-4-((4-pivaloylphenyl)amino)-1H-pyrazole-3-carboxamide], the concentration for half-maximal inhibition (IC50) in test [1] and in test [2] was 0.1 to 1 µM each time.
Regarding `CCc1cnnn1-c1ccc(Nc2nn(-c3c(Cl)cccc3Cl)nc2C(N)=O)cc1` [compound 126, 2-(2,6-dichlorophenyl)-5-((4-(5-ethyl-1H-1,2,3-triazol-1-yl)phenyl)amino)-2H-1,2,3-triazole-4-carboxamide], the half-inhibitory concentration (IC50) is 0.01 to 0.1 µM in test [1] and less than 0.01 µM in test [2].
Take `NC(=O)c1nn(-c2c(Cl)cccc2Cl)cc1Nc1ccc(C(=O)N2CCCC2)nc1` [compound 358, 1-(2,6-dichlorophenyl)-4-((6-(pyrrolidine-1-carbonyl)pyridin-3-yl)amino)-1H-pyrazole-3-carboxamide]: the IC50 in test [1] was in the range of 0.01 to 0.1 µM; in test [2], 0.1 to 1 µM.
As for `NC(=O)c1nn(-c2c(Cl)cccc2Cl)nc1Nc1ccc(C(=O)N2CCS(=O)(=O)CC2)cn1` [compound 160, 2-(2,6-dichlorophenyl)-5-((5-(1,1-dioxidothiomorpholine-4-carbonyl)pyridin-2-yl)amino)-2H-1,2,3-triazole-4-carboxamide], the IC50 was less than 0.01 µM in test [1] and 0.01 to 0.1 µM in test [2].
As for `NC(=O)c1nn(-c2c(Cl)cccc2Cl)cc1Nc1ccc(-n2nncc2C(F)(F)F)cc1` [compound 438, 1-(2,6-dichlorophenyl)-4-((4-(5-(trifluoromethyl)-1H-1,2,3-triazol-1-yl)phenyl)amino)-1H-pyrazole-3-carboxamide], the IC50 in test [1] lay in the range of 0.01 to 0.1 µM; in test [2], 0.1 to 1 µM.
In the case of `NC(=O)c1nn(-c2c(Cl)cccc2Cl)nc1Nc1ccc(N2CCOCC2)cn1` [compound 143, 2-(2,6-dichlorophenyl)-5-((5-morpholinopyridin-2-yl)amino)-2H-1,2,3-triazole-4-carboxamide], the IC50 in test [1] and in test [2] was 0.1 to 1 µM in each case.
`COC(=O)Cn1cc(Nc2cn(-c3c(Cl)cccc3Cl)nc2C(N)=O)cn1` [compound 462, methyl_2-(4-((3-carbamoyl-1-(2,6-dichlorophenyl)-1H-pyrazol-4-yl)amino)-1H-pyrazol-1-yl)acetate]: the IC50 in test [1] lay within 0.1 to 1 µM; in test [2], 0.01 to 0.1 µM.
Turning to `Cc1cccc2nnc(-c3ccc(Nc4cn(-c5c(Cl)cccc5Cl)nc4C(N)=O)nc3)n12` [compound 429, 1-(2,6-dichlorophenyl)-4-((5-(5-methyl-[1,2,4]triazolo[4,3-a]pyridin-3-yl)pyridin-2-yl)amino)-1H-pyrazole-3-carboxamide], the concentration for half-maximal inhibition (IC50) was 0.01 to 0.1 µM in test [1] and 0.1 to 1 µM in test [2].
For the compound `NC(=O)c1nn(-c2c(Cl)cc(F)cc2Cl)cc1Nc1ccc(C(=O)N2CCOCC2)cc1` [compound 412, 1-(2,6-dichloro-4-fluorophenyl)-4-((4-(morpholine-4-carbonyl)phenyl)amino)-1H-pyrazole-3-carboxamide], the IC50 in test [1] and in test [2] was 0.01 to 0.1 µM throughout.
`NC(=O)c1nn(-c2c(Cl)cccc2Cl)cc1Nc1ccn(-c2ccccn2)n1` [compound 397, 1-(2,6-dichlorophenyl)-4-((1-(pyridin-2-yl)-1H-pyrazol-3-yl)amino)-1H-pyrazole-3-carboxamide]: the IC50 in test [1] and in test [2] was 0.1 to 1 µM throughout.
With `NC(=O)c1nn(-c2c(Cl)cccc2Cl)cc1Nc1ccc(-n2ccccc2=O)nc1` [compound 390, 1-(2,6-dichlorophenyl)-4-((2-oxo-2H-[1,2′-bipyridin]-5′-yl)amino)-1H-pyrazole-3-carboxamide], the IC50 in test [1] and in test [2] was 0.1 to 1 µM throughout.
Turning to `NC(=O)c1nn(-c2c(Cl)cccc2Cl)cc1Nc1cnc(C(=O)N2CCOCC2)cn1` [compound 401, 1-(2,6-dichlorophenyl)-4-((5-(morpholine-4-carbonyl)pyrazin-2-yl)amino)-1H-pyrazole-3-carboxamide], the IC50 in test [1] and in test [2] was 0.1 to 1 µM throughout.
As to `CC(C)(C)OC(=O)N1CCCC(NC(=O)c2ccc(Nc3cn(-c4c(Cl)cccc4Cl)nc3C(N)=O)cc2)C1` (stereo not drawn) [compound 33, tert-butyl_3-(4-((3-carbamoyl-1-(2,6-dichlorophenyl)-1H-pyrazol-4-yl)amino)benzamido)piperidine-1-carboxylate], the IC50 in test [1] and in test [2] was 0.1 to 1 µM throughout.
Consider `Cn1ncc(Nc2cn(-c3c(Cl)cccc3Cl)nc2C(N)=O)n1` [compound 379, 1-(2,6-dichlorophenyl)-4-((2-methyl-2H-1,2,3-triazol-4-yl)amino)-1H-pyrazole-3-carboxamide], for which the concentration for half-maximal inhibition (IC50) in test [1] and in test [2] was 0.1 to 1 µM each time.
Regarding `NC(=O)c1nn(-c2c(Cl)cccc2Cl)cc1Nc1ccc(-n2cnc(Cl)n2)cc1` [compound 79, 4-((4-(3-chloro-1H-1,2,4-triazol-1-yl)phenyl)amino)-1-(2,6-dichlorophenyl)-1H-pyrazole-3-carboxamide], the IC50 in test [1] lay in the range of 0.01 to 0.1 µM; in test [2] it was 0.1 to 1 µM.
The matching figures for `CN(C)C1CCN(C(=O)c2ccc(Nc3nn(-c4c(Cl)cccc4Cl)nc3C(N)=O)nc2)CC1` [compound 149, 2-(2,6-dichlorophenyl)-5-((5-(4-(dimethylamino)piperidine-1-carbonyl)pyridin-2-yl)amino)-2H-1,2,3-triazole-4-carboxamide]: 0.01 to 0.1 µM and less than 0.01 µM.
Turning to `CC(C)c1nnnn1-c1ccc(Nc2cn(-c3c(Cl)cccc3Cl)nc2C(N)=O)cn1` [compound 393, 1-(2,6-dichlorophenyl)-4-((6-(5-isopropyl-1H-tetrazol-1-yl)pyridin-3-yl)amino)-1H-pyrazole-3-carboxamide], the IC50 in test [1] and in test [2] was 0.1 to 1 µM throughout.
